Data reported in patent US11000491B2, “Amino-aryl-benzamide compounds and methods of use thereof” (HEPANOVA, INC., priority 2017, dated 2021).
Read-outs that look alike come from different tables or passages of the source.

Key:
Format in all cases: cell-based
Huh7 cells = assay: LD content in Huh7 cells pre-treated with insulin, Oil-Red-O staining, absorbance OD 540 nm; conditions: procedure of Example 3, read-out: LD content inhibition (EC50)
How it was run: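 Huh7 cells, mock-treated or pre-treated with 1 mM insulin, were then exposed to compound at the indicated amounts. Lipid droplets stained with Oil Red O and quantified by absorbance at OD 540 nm.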

SREBP-1 = SREBP-1 expression in cultured primary human hepatocytes; conditions: procedure of Example 6, read-out: SREBP-1 mRNA inhibition (EC50)
How it was run: (§1)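 Primary human hepatocytes in culture exposed to a range of HPN-01 derivative concentrations; SREBP-1 and SREBP-2 mRNA expression then measured to assess inhibition.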

SREBP-2 = SREBP-2 expression in cultured primary human hepatocytes; conditions: procedure of Example 6, read-out: SREBP-2 mRNA inhibition (EC50)
How it was run: as §1

[1] = Homo sapiens, Huh-7, Huh7 cells

Row | Molecule | EC50 (Huh7 cells; [1]) | EC50 (SREBP-1; Homo sapiens, Hepatocyte) | EC50 (SREBP-2; Homo sapiens, Hepatocyte) | EC50 (Huh7 cells; Huh7 cells) | EC50 (SREBP-1) | EC50 (SREBP-2)
1 | NS(=O)(=O)c1ccc(-c2cc(-c3ccc(Br)cc3)cc3c(=O)[nH]c(=O)[nH]c23)cc1 [HPN-01610, 4-(6-(4-bromophenyl)-2,4-dioxo-1,2,3,4-tetrahydroquinazolin-8-yl)benzene sulfonamide] | 1.16 µM | 2 µM | 3.44 µM | – | – | –
2 | Nc1c(C(=O)Nc2ccccc2)cc(-c2ccc(Cl)cc2)cc1-c1ccc(S(N)(=O)=O)cc1 [HPN-01611, 4′-amino-4-chloro-N-phenyl-4″-sulfamoyl-[1,1′:3′,1″-terphenyl]-5′-carboxamide] | 0.79 µM | 1.37 µM | 2.24 µM | – | – | –
3 | Nc1c(C(=O)Nc2ccccc2)cc(-c2ccc(Br)cc2)cc1-c1ccc(S(N)(=O)=O)cc1 [HPN-01612, 4′-amino-4-bromo-N-phenyl-4″-sulfamoyl-[1,1′:3′,1″-terphenyl]-5′-carboxamide] | 0.64 µM | 3.11 µM | 5.48 µM | – | – | –
4 | Nc1c(C(=O)Nc2cccc(F)c2)cc(-c2ccc(Cl)cc2)cc1-c1ccc(S(N)(=O)=O)cc1 [HPN-01613, 4′-amino-4-chloro-N-(3-fluorophenyl)-4″-sulfamoyl-[1,1′:3′,1″-terphenyl]-5′-carboxamide] | 1.37 µM | 1.55 µM | 2.2 µM | – | – | –
5 | Nc1c(C(=O)Nc2cccc(F)c2)cc(-c2ccc(Br)cc2)cc1-c1ccc(S(N)(=O)=O)cc1 [HPN-01614, 4′-amino-4-bromo-N-(3-fluorophenyl)-4″-sulfamoyl-[1,1′:3′,1″-terphenyl]-5′-carboxamide] | 0.82 µM | 5.65 µM | 8.6 µM | – | – | –
6 | Nc1c(C(=O)Nc2ccc(F)c(F)c2)cc(-c2ccc(Cl)cc2)cc1-c1ccc(S(N)(=O)=O)cc1 [HPN-01615, 4′-amino-4-chloro-N-(3,4-difluorophenyl)-4″-sulfamoyl-[1,1′:3′,1″-terphenyl]-5′-carboxamide] | 1.15 µM | 6.69 µM | 11.7 µM | – | – | –
7 | Nc1c(C(=O)Nc2ccc(F)c(F)c2)cc(-c2ccc(Br)cc2)cc1-c1ccc(S(N)(=O)=O)cc1 [HPN-01616, 4′-amino-4-bromo-N-(3,4-difluorophenyl)-4″-sulfamoyl-[1,1′:3′,1″-terphenyl]-5′-carboxamide] | 1.07 µM | 3.57 µM | 6.79 µM | – | – | –
8 | Nc1c(C(=O)Nc2ccc(O)c(O)c2)cc(-c2ccc(Cl)cc2)cc1-c1ccc(S(N)(=O)=O)cc1 [HPN-01617, 4′-amino-4-chloro-N-(3,4-dihydroxyphenyl)-4″-sulfamoyl-[1,1′:3′,1″-terphenyl]-5′-carboxamide] | 0.32 µM | 1.88 µM | 3.68 µM | – | – | –
9 | Nc1c(C(=O)Nc2ccc(O)c(O)c2)cc(-c2ccc(Br)cc2)cc1-c1ccc(S(N)(=O)=O)cc1 [HPN-01618, 4′-amino-4-bromo-N-(3,4-dihydroxyphenyl)-4″-sulfamoyl-[1,1′:3′,1″-terphenyl]-5′-carboxamide] | 1.43 µM | 3.57 µM | 6.37 µM | – | – | –
10 | COc1cccc(NC(=O)c2cc(-c3ccc(Cl)cc3)cc(-c3ccc(S(N)(=O)=O)cc3)c2N)c1 [HPN-01619, 4′-amino-4-chloro-N-(3-methoxyphenyl)-4″-sulfamoyl-[1, 1′:3′,1″-terphenyl]-5′-carboxamide] | 1.33 µM | 4.18 µM | 7.95 µM | – | – | –
11 | COc1cccc(NC(=O)c2cc(-c3ccc(Br)cc3)cc(-c3ccc(S(N)(=O)=O)cc3)c2N)c1 [HPN-01620, 4′-amino-4-bromo-N-(3-methoxyphenyl)-4″-sulfamoyl-[1,1′:3′,1″-terphenyl]-5′-carboxamide] | 5.36 µM | 5.76 µM | 9.22 µM | – | – | –
12 | Nc1c(-c2ccc(S(N)(=O)=O)cc2)cc(-c2ccc(Br)cc2)cc1N1CCNCC1 [HPN-01622, 6′-amino-4″-bromo-5′-(piperazin-1-yl)-[1,1′:3′,1″-terphenyl]-4-sulfonamide] | 22.8 µM | 37.1 µM | 50.8 µM | – | – | –
13 | NC(=O)N1CCN(c2cc(-c3ccc(Cl)cc3)cc(-c3ccc(S(N)(=O)=O)cc3)c2N)CC1 [HPN-01623, 4-(4′-amino-4-chloro-4″-sulfamoyl-[1, 1′:3′,1″-terphenyl]-5′-yl)piperazine-1-carboxamide] | 15.3 µM | 38.1 µM | 50.1 µM | – | – | –
14 | Nc1c(C(=O)Nc2cccnc2)cc(-c2ccc(Cl)cc2)cc1-c1ccc(S(N)(=O)=O)cc1 [HPN-01625, 4′-amino-4-chloro-N-(pyridin-3-yl)-4″-sulfamoyl-[1,1′:3′,1″-terphenyl]-5′-carboxamide] | 2.32 µM | 3.32 µM | 18.8 µM | – | – | –
15 | Nc1c(C(=O)Nc2ccc[nH]2)cc(-c2ccc(Cl)cc2)cc1-c1ccc(S(N)(=O)=O)cc1 [HPN-01626, 4′-amino-4-chloro-N-(1H-pyrrol-2-yl)-4″-sulfamoyl-[1,1′:3′,1″-terphenyl]-5′-carboxamide] | 3.05 µM | 7.22 µM | 12.5 µM | – | – | –
16 | Nc1c(C(=O)Nc2ccsc2)cc(-c2ccc(Cl)cc2)cc1-c1ccc(S(N)(=O)=O)cc1 [HPN-01627, 4′-amino-4-chloro-4″-sulfamoyl-N-(thiophen-3-yl)-[1,1′:3′,1″-terphenyl]-5′-carboxamide] | 1.2 µM | 1.95 µM | 4.31 µM | – | – | –
17 | Nc1c(C(=O)Nc2cc[nH]c2)cc(-c2ccc(Cl)cc2)cc1-c1ccc(S(N)(=O)=O)cc1 [HPN-01628, 4′-amino-4-chloro-N-(1H-pyrrol-3-yl)-4″-sulfamoyl-[1,1′:3′,1″-terphenyl]-5′-carboxamide] | 1.16 µM | 2.39 µM | 5.48 µM | – | – | –
18 | Nc1c(C(=O)NCc2ccc[nH]2)cc(-c2ccc(Cl)cc2)cc1-c1ccc(S(N)(=O)=O)cc1 [HPN-01629, N-((1H-pyrrol-2-yl)methyl)-4′-amino-4-chloro-4″-sulfamoyl-[1,1′:3′,1″-terphenyl]-5′-carboxamide] | 1.37 µM | 2 µM | 8.6 µM | – | – | –
19 | Nc1c(C(=O)NCc2cccnc2)cc(-c2ccc(Cl)cc2)cc1-c1ccc(S(N)(=O)=O)cc1 [HPN-01630, 4′-amino-4-chloro-N-(pyridin-3-ylmethyl)-4″-sulfamoyl-[1,1′:3′,1″-terphenyl]-5′-carboxamide] | 2.39 µM | 3.57 µM | 3.87 µM | – | – | –
20 | (E)-2-amino-5-(3-((4-fluorophenethyl)amino)-3-oxoprop-1-en-1-yl)-4′-sulfamoyl-[1,1′-biphenyl]-3-carboxamide [HPN-01132] | – | – | – | 0.07 µM | 0.36 µM | 1.55 µM
21 | (E)-2-amino-5-(3-((4-methoxyphenyl)amino)-3-oxoprop-1-en-1-yl)-4′-sulfamoyl-[1,1′-biphenyl]-3-carboxamide [HPN-01128] | – | – | – | 0.89 µM | 2.4 µM | 3.47 µM
22 | (E)-2-amino-5-(3-(cyclohexylamino)-3-oxoprop-1-en-1-yl)-4′-sulfamoyl-[1,1′-biphenyl]-3-carboxamide [HPN-01133] | – | – | – | 0.7 µM | 2.55 µM | 3.07 µM
23 | (E)-2-amino-5-(3-oxo-3-(phenylamino)prop-1-en-1-yl)-4′-sulfamoyl-[1,1′-biphenyl]-3-carboxamide [HPN-01125] | – | – | – | 0.38 µM | 2.8 µM | 4.27 µM
24 | (E)-2-amino-5-styryl-4′-sulfamoyl-[1,1′-biphenyl]-3-carboxamide [HPN-01101] | – | – | – | 0.57 µM | 2.96 µM | 6.98 µM
